For data set [1] the following is noted: 10% w/w aqueous solution.
Procedure: After given storage periods of 2,6,24 hours the percentage decomposition was measured according to the formula [formula] wherein DP2^+ is the amount of oligomers with a DP of 2 or more.
The subject of data set [2] is rats. The following applies: rat, in vivo.
Procedure: The control diet consisted of the following ingredients in the indicated ratios:
Four other diets were prepared by substituting for corn starch corresponding to 10% by weight of the entire control diet equal amounts respectively: of the bulking agent according to the invention; Neosugar; Polydextrose; and sucrose.
Groups comprising five rats in each group were fed with these diets, and the digestible dry matter was measured after a preliminary period of 10 days by differential gravimetric determination.
Data set [3] deals with rats. In words: Weight increase of rats after an additional 6 weeks and digestibility calculated from it. The class given is in vivo. To be noted: after an additional 6 weeks, diet with 10% of substance. The procedure: Later, after an additional 6 weeks the weight increase was measured.
The percentual weight difference, y % of the bulking agent, taking the sucrose as a control with an assumed digestibility of 100%, thus can be calculated according to the equation: [formula]
As the bulking agent is only 10% of the diet, the digestibility, x %, can be calculated according to the equation: […]
The digestibility of Polydextose and Neosugar can be calculated in a similar manner. In the following table the calculated 6 weeks digestibilities of the bulking agents are shown.

Read-outs that look alike come from different tables or passages of the source.

With `OC[C@H]1O[C@@](CO)(O[C@H]2O[C@H](CO)[C@@H](O)[C@H](O)[C@H]2O)[C@@H](O)[C@@H]1O` [Sucrose, sucrose], the percentage decomposition is recorded as 0% in data set [1] (2 h, pH 5); 0% in data set [1] (2 h, pH 6); 0% in data set [1] (2 h, pH 7); 97.2% in data set [1] (5 h, pH 2); 31.8% in data set [1] (5 h, pH 3); 5.8% in data set [1] (5 h, pH 4). Moreover, the percentage decomposition in data set [1] (5 h, pH 5) came to 0%; in data set [1] (5 h, pH 6) it was 0%; in data set [1] (5 h, pH 7), 0%; in data set [1] (6 h, pH 2), 15.0%; in data set [1] (6 h, pH 3) it was 3.7%; in data set [1] (6 h, pH 4), 0%. Also, the percentage decomposition was 0% in data set [1] (6 h, pH 5); 0% in data set [1] (6 h, pH 6); 0% in data set [1] (6 h, pH 7); 0% in data set [1] (24 h, pH 5); 0% in data set [1] (24 h, pH 6); 0% in data set [1] (24 h, pH 7). The percentage decomposition in data set [1] (48 h, pH 2) is 100%; in data set [1] (48 h, pH 3), 77.2%; in data set [1] (48 h, pH 4) it was 10.8%; in data set [1] (48 h, pH 5), 1.6%; in data set [1] (48 h, pH 6), 0%; in data set [1] (48 h, pH 7), 0%. The “Digestible dry matter of diet, mean” value in the data set with rats [2] was 94.1%. Moreover, in the data set on rats [3], the Average weight increase is recorded as 220.11 g.

Consider Polydextrose, for which, in the data set on rats [2], the “Digestible dry matter of diet, mean” value is recorded as 91.8% and the “Digestible dry matter of the bulking agent, x %” value is listed as 68%.

The values above are taken from patent US4871571A, “Dietetic foodstuff containing low calorie bulking agent” (Novo Industri A/S, priority 1987, dated 1989).
